Test results taken from patent US9358096B2, “Methods of treatment with drug eluting stents with prolonged local elution profiles with high local concentrations and low systemic concentrations” (Abbott Laboratories, priority 2007, dated 2016).
Read-outs that look alike come from different tables or passages of the source.

Assay: everolimus arterial tissue concentration in and next to the stented vessel
Format: in vivo, swine
Settings: for Tmax: pig; for concentration at 3 days / concentration at 7 days / concentration at 28 days / concentration at 56 days / concentration at 90 days / concentration at 14 days: swine
[1] = 8×28 mm stent, 1070 μg everolimus (first aspect, matches group 1)
[2] = 10×28 mm stent, 1070 μg everolimus
[3] = 1070 μg, 8.0×28 mm stent, group 2, 1070 μg Lot #2, read-out: drug concentration in tissue proximal to stented region
[4] = 3209 μg, 8.0×28 mm stent, group 3, 3209 μg, read-out: drug concentration in tissue distal to stented region
[5] = 3209 μg, 8.0×28 mm stent, group 3, 3209 μg, read-out: drug concentration in tissue proximal to stented region
[6] = arterial tissue distal to stented region (unstented), 1070 μg, 10.0×28 mm stent, 1070 μg, read-out: drug concentration in tissue distal to stented region
[7] = arterial tissue of stented region, 1070 μg, 8.0×28 mm stent, group 2, 1070 μg Lot #2, read-out: drug concentration in tissue of stented region
[8] = arterial tissue of stented region, 1070 μg, 10.0×28 mm stent, 1070 μg, read-out: drug concentration in tissue of stented region
[9] = arterial tissue of the stented region, other: drug-eluting stent implanted in iliofemoral arteries, 1070 μg, 10.0×28 mm stent, 1070 μg, read-out: drug concentration in tissue of stented region
[10] = arterial tissue proximal to stented region (unstented), 1070 μg, 10.0×28 mm stent, 1070 μg, read-out: drug concentration in tissue proximal to stented region
[11] = arterial tissue, distal stented region (D), 7.0×100 mm stent, read-out: Mean Arterial Tissue Concentration, D distal stented region
[12] = arterial tissue, medial stented region (C), 7.0×100 mm stent, read-out: Mean Arterial Tissue Concentration, C medial stented region
[13] = arterial tissue, proximal stented region (B), 7.0×100 mm stent, read-out: Mean Arterial Tissue Concentration, B proximal stented region
[14] = arterial tissue, stented region, 3209 μg, 8.0×28 mm stent, group 3, 3209 μg, read-out: drug concentration in tissue of stented region
[15] = arterial tissue, unstented segment distal to stented region, 1070 μg, 8.0×28 mm stent, group 2, 1070 μg Lot #2, read-out: drug concentration in tissue distal to stented region
[16] = other: drug-eluting stent implanted in iliofemoral arteries, 1070 μg, 10.0×28 mm stent, 1070 μg, read-out: drug concentration in tissue distal to stented region
[17] = other: drug-eluting stent implanted in iliofemoral arteries, 1070 μg, 10.0×28 mm stent, 1070 μg, read-out: drug concentration in tissue proximal to stented region

CO[C@H]1C[C@@H]2CC[C@@H](C)[C@@](O)(O2)C(=O)C(=O)N2CCCC[C@H]2C(=O)O[C@H]([C@H](C)C[C@@H]2CC[C@@H](OCCO)[C@H](OC)C2)CC(=O)[C@H](C)/C=C(\C)[C@@H](O)[C@@H](OC)C(=O)[C@H](C)C[C@H](C)/C=C/C=C/C=C/1C [everolimus, 40-O-(2-hydroxyethyl)-rapamycin]
tissue Cmax (7×100 mm stent, 3777 μg everolimus): ≥ 16347 ng/g | tissue Cmax [1]: ≥ 12946 ng/g | tissue Tmax [1]: 72 h | tissue Cmax (8×28 mm stent, 1070 μg everolimus (second aspect, matches group 2)): ≥ 8709 ng/g | tissue Cmax (8×28 mm stent, 3209 μg everolimus): ≥ 22027 ng/g | tissue Cmax [2]: ≥ 6607 ng/g | tissue Tmax [2]: 72 h | Tmax (arterial tissue of the stented vessel, 1070 ug, 8×28 mm stent, 1070 μg everolimus (second aspect, matches group 2)): 72 h | Tmax (arterial tissue of the stented vessel, 3209 ug, 8×28 mm stent, 3209 μg everolimus): 72 h | Tmax (arterial tissue, 3777 ug, 7×100 mm stent, 3777 μg everolimus): 72 h | concentration at 3 days [3]: 533 ng/g | concentration at 7 days [3]: 104 ng/g | concentration at 28 days [3]: 50 ng/g | concentration at 56 days [3]: 10 ng/g | concentration at 90 days [3]: 16 ng/g | concentration at 3 days [4]: 856 ng/g | concentration at 3 days [5]: 520 ng/g | concentration at 7 days [4]: 910 ng/g | concentration at 7 days [5]: 698 ng/g | concentration at 14 days [4]: 1120 ng/g | concentration at 14 days [5]: 307 ng/g | concentration at 28 days [4]: 414 ng/g | concentration at 28 days [5]: 136 ng/g | concentration at 90 days [4]: 63 ng/g | concentration at 90 days [5]: 55 ng/g | concentration at 7 days [6]: 208 ng/g | concentration at 14 days [6]: 251 ng/g | concentration at 28 days [6]: 86 ng/g | concentration at 3 days [7]: 8710 ng/g | concentration at 7 days [7]: 3590 ng/g | concentration at 28 days [7]: 1850 ng/g | concentration at 56 days [7]: 2190 ng/g | concentration at 90 days [7]: 1270 ng/g | concentration at 14 days [8]: 4140 ng/g | concentration at 28 days [8]: 3930 ng/g | concentration at 3 days [9]: 6610 ng/g | concentration at 7 days [9]: 5100 ng/g | concentration at 90 days [9]: 2300 ng/g | concentration at 14 days [10]: 40 ng/g | concentration at 28 days [10]: 12 ng/g | concentration at 3 days [11]: 12400 ng/g | concentration at 7 days [11]: 9630 ng/g | concentration at 14 days [11]: 6530 ng/g | concentration at 28 days [11]: 4280 ng/g | concentration at 90 days [11]: 2400 ng/g | concentration at 3 days [12]: 16300 ng/g | concentration at 7 days [12]: 11400 ng/g | concentration at 14 days [12]: 5240 ng/g | concentration at 28 days [12]: 4150 ng/g | concentration at 90 days [12]: 2700 ng/g | concentration at 3 days [13]: 10900 ng/g | concentration at 7 days [13]: 7890 ng/g | concentration at 14 days [13]: 4820 ng/g | concentration at 28 days [13]: 3620 ng/g | concentration at 90 days [13]: 2210 ng/g | concentration at 3 days [14]: 22000 ng/g | concentration at 7 days [14]: 17200 ng/g | concentration at 14 days [14]: 16500 ng/g | concentration at 28 days [14]: 13200 ng/g | concentration at 90 days [14]: 2460 ng/g | concentration at 3 days [15]: 1550 ng/g | concentration at 7 days [15]: 435 ng/g | concentration at 28 days [15]: 73 ng/g | concentration at 56 days [15]: 25 ng/g | concentration at 90 days [15]: 11 ng/g | concentration at 3 days [16]: 278 ng/g | concentration at 3 days [17]: 100 ng/g | concentration at 7 days [17]: 37 ng/g | concentration at 90 days [16]: 8 ng/g | concentration at 90 days [17]: 7 ng/g | concentration at 3 days (7.0×100 mm stent, read-out: Mean Arterial Tissue Concentration, A non-stented region proximal to stented region): 269 ng/g | concentration at 3 days (7.0×100 mm stent, read-out: Mean Arterial Tissue Concentration, E non-stented region distal to stented region): 263 ng/g
